Like-named read-outs stand apart in the source and are kept apart here.
Assays:
[1] = tested on: tomato yellow leaf curl virus (TYLCV); test: Test for symptom relief effects against tomato yellow leaf curl virus disease; type: in vivo; conditions: 500 ppm alone
Protocol: N,N-dimethylformamide based solutions were prepared according to the formulations shown in Table 18 to give chemical liquids for the tests.
Tomato nursery plants (breed: Momotaro) grown up to the 8 leaf stage in a greenhouse were prepared.
Tomato nursery plants suffering from tomato yellow leaf curl virus (TYLCV) were used as inoculation sources.
A diseased plant was obliquely cut in round slices at the stem, and graft-inoculated to a tomato nursery plant. In order to prevent dryness, parafilm was wrapped around the grafted portion for protection.
After the graft inoculation, the above chemical solution was sprayed on the stem and leaf part of the tomato nursery plant in a sufficient amount. Then, the above chemical solution was sprayed 3 times at intervals of about one week in a sufficient amount. Symptoms of tomato yellow leaf curl disease were investigated at an elapsed time of 25 days.
Symptoms were evaluated by 5 levels of onset indices of 0 (with no onset) to 4 (fulminant).
Onset inhibition percentages as compared with a region treated with solvent DMF only (Chemical solution 3) were computed by the following formula.
Onset inhibition percentage=(onset index of region treated with solvent only)−(onset index of each treatment region))/(onset index of region treated with solvent only)×100
Further, the expectation values of onset inhibition percentages were computed based on the Colby's equation.
The Colby's equation is E=M+N−MN/100. In the equation, E represents the expectation value of an onset inhibition percentage (%), and M represents an onset inhibition percentage (%) calculated from measurements when the substance (A1) is used alone, and N represent an onset inhibition percentage (%) calculated from measurements when the substance (A2) is used alone.

[2] = tested on: Tomato nursery plants (breed: Momotaro); type: in vivo; conditions: spray, 7 days; for phytotoxicity index: index 0 to 10
Protocol: N,N-dimethylformamide based solutions were prepared according to the formulations shown in Table 10 to give chemical solutions for the tests.
Tomato nursery plants (breed: Momotaro) grown up to the 4 leaf stage in a greenhouse were prepared.
The above chemical solution was sprayed to the stem and leaf parts of the above tomato nursery plants in an amount of liquid dropping, and then air dried. They were allowed to grow for 7 days under the average temperature and humidity conditions on March in Japan.
Subsequently, phytotoxicity such as a degree of leaf browning and outgrowth inhibition was investigated.
Phytotoxicity was evaluated by 11 levels of phytotoxicity indices of 0 (with no disorder) to 10 (withering to death).
Chemical poisoning injury relief percentages as compared with a region treated with solvent DMF only were computed by the following formula.
Chemical poisoning injury relief percentage=(phytotoxicity index of region treated with solvent only)−(phytotoxicity index of each treated region))/(phytotoxicity index of region treated with solvent only)×100

[3] = agric. chemical 100 ppm alone (reference)
[4] = agric. chemical 200 ppm alone (reference)

Row | SMILES | Onset percentage(%) ([1]; tomato graft-inoculated, sprayed 4 times, 25 days) | Onset inhibition percentage(%) ([1]; vs solvent DMF only, 25 days) | Expectation value(%) ([1]; expectation value of onset inhibition percentage) | relief percents of phytotoxicity (%) [2, 3] | phytotoxicity index ([2]; agric. chemical 100 ppm alone) | relief percents of phytotoxicity (%) [2, 4] | phytotoxicity index ([2]; agric. chemical 200 ppm alone)
1 | O=C1O[C@H]([C@@H](O)CO)C(O)=C1O[C@H]1O[C@H](CO)[C@@H](O)[C@H](O)[C@H]1O [Ascorbyl glucoside] | 40% | 20% | 20% | – | – | – | –
2 | O=[N+]([O-])c1cc(C(F)(F)F)c(Cl)c([N+](=O)[O-])c1Nc1ncc(C(F)(F)F)cc1Cl [Fluazinam] | – | – | – | 0% | 6 | 0% | 6
3 | CO/C=C(/C(=O)OC)c1ccccc1Oc1cc(Oc2ccccc2C#N)ncn1 [Azoxystrobin] | – | – | – | 0% | 5 | 0% | 6
